In the experiment the test system is NIH3T3-HGL HSF1 luciferase reporter, MG132, 8 h. As to the kind of experiment: HSF1 potentiators in luciferase reporter cells, confirmation, cell-based, NIH3T3, luminescence, dose retest (AID 435004). For orientation: Reporter assays use an easily measured gene product as a stand-in for the process of interest.

By pEC50 is commonly meant the EC50 on a negative log10 scale, so that one unit is a factor of ten. Broadly, the EC50 is the midpoint of the concentration-response curve.

The structures appear in SMILES notation. pEC50: −log10 of the molar value. Records with an inconclusive call do not appear. Activity calls are given as the source filed them.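 Rule for the calls: active = EC50 at most a set number of log units above the top tested dose; inconclusive = flat curve fit with activity between 30% and 70%, or poor fit; inactive = EC50 further above the top dose than that.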 Some results are limits rather than exact numbers.

Regarding `O=C1CC(c2ccccc2Cl)CC(O)=C1C=Nc1ccccc1` (stereo not drawn), the negative logarithm of the EC50 (pEC50) is 5.33.

Consider `C#CCOCCOCCOCCNc1nc(N2CCN(C(=O)[C@H](Cc3cc4ccccc4[nH]3)n3cc(C(N)CC(C)C)nn3)CC2)nc(N2CCN(C(=O)[C@H](CCC(=O)O)n3cc(C(N)[C@H](C)CC)nn3)CC2)n1` (stereo partly drawn), for which the EC50 is > 26 µM (inactive).

`CC(C)CCN=CC1=C(O)CC(c2ccccc2)CC1=O` (stereo not drawn): the EC50 was > 26 µM (inactive).

The values are drawn from PubChem BioAssay AID435004 (Broad Institute, 2010).
